We go through two compounds from patent US10898475B2, “Bach1 inhibitors in combination with Nrf2 activators and pharmaceutical compositions thereof” (vTv Therapeutics LLC, priority 2014, dated 2021).

This assay relates to HMOX1 in Normal Human Lung Fibroblasts (NHLF). As to the kind of experiment: HMOX1 Protein Expression (immunostaining, fold induction or % positive cells over DMSO). The following applies: for % Cells Positive HMOX: Cpd. 0 uM.
Setting [1] is: Homo sapiens, Fibroblast, read-out: Fold Induction of HMOX.

“And” between values parts separate entries of the source, which are not always exact repeats. Equal values may be shown once. Where a name gives a salt, the structure may show the parent alone.

Procedure: Normal Human Lung Fibroblasts (NHLF) obtained from Lonza were cultured in T-225 flasks using conditions recommended by the vendor (FGM-2 medium supplemented with 2% fetal bovine serum (FBS), fibroblast growth factor (hFGF-B) 0.5 mL, insulin 0.5 mL, and gentamicin/amphotericin-B 0.5 mL at 37° C. in a humidified atmosphere of 5% CO2).
For assays, cell were thawed and placed into culture in T225 flasks, grown to be 80% confluent, and harvested as described by the vendor. NHLF cells (2.5×10^4 cells per well) were plated in 384 well optilux tissue culture (BD) plates and incubated overnight in media prior to exposure to compound. Cells were incubated with DMSO or various combinations of either an Nrf2 Activator (DMF (dimethyl fumarate)/CDDO-Me) or a Bach1 Inhibitor for 16-18 hr. Cells were then fixed and permeabilized prior to incubation with HMOX1 antibody (abcam; 1:300 dilution in 1% BSA in PBS) for 1 hour. Cells were then washed and incubated with a solution of fluorescently-coupled goat anti-mouse antibody (Alexa 488 1:400 dilution Invitrogen) and Hoechst nuclear stain (1:2000; Invitrogen) in PBS containing 1% BSA for 1 hr. Immunostaining was detected using a GE InCell 2000 instrument at the following wavelengths: Hoechst Ex/Em 360/535 and Alexa 488 Ex/Em 480/535. Results were analyzed using GE InCell Analyzer software and represented as the increase fold of HMOX1 induction (Fold induction/FI) or the percentage of HMOX1 positive (% positive) cells over DMSO.

Turning to `COC(=O)/C=C/C(=O)OC` [DMF, dimethyl fumarate, reference compound], the “Hill slope of DMF dose response curves in Table 2” value (Bach1 Inhibitor Conc. 0 uM, % Positive HMOX) was 1.25 and 1.26. Besides, under “DMF 0.03 uM”, the “% Cells Positive HMOX” value was determined as 1.71%. Further, for the setting “DMF 0.1 uM”, the “% Cells Positive HMOX” value turned out to be 1.21%. For the same compound, the “% Cells Positive HMOX” value (DMF 0.3 uM) is given as 2.47%. For the same compound, the “% Cells Positive HMOX” value (DMF 1 uM) came to 4.38%. Also, under “DMF 3 uM”, the “% Cells Positive HMOX” value was determined as 41.58%. Also, the “% Cells Positive HMOX” value (DMF 10 uM) is listed as 74.35%. Further, under “DMF 30 uM”, the “% Cells Positive HMOX” value is listed as 84.56%. Under setting [1], the fold induction at 0.03 µM was 1.04, the fold induction at 0.1 µM was 1.06, the fold induction at 0.3 µM came out at 1.14 and the fold induction at 1 µM worked out at 1.39. Also, under setting [1], the fold induction at 3 µM was 2.76, the fold induction at 10 µM is 4.45 and the fold induction at 30 µM came to 6.19.

Consider `COC(=O)[C@]12CCC(C)(C)C[C@H]1[C@H]1C(=O)C=C3[C@@]4(C)C=C(C#N)C(=O)C(C)(C)[C@@H]4CC[C@@]3(C)[C@]1(C)CC2` [Bardoxolone Methyl, methyl 2-cyano-3,12-dioxooleana-1,9(11)dien-28-oate, reference compound], for which, for the setting “9.7 nM CDDO-Me alone”, the “increase HMOX1 (FIG. 1 bar B)” value is on record as 2.5 fold. Further, for the setting “CDDO-Me alone, greater than or equal to 156 nM”, the “induction of HMOX1 protein” value turned out to be 19 fold. Besides, under setting [1], the fold induction at 0.0024 µM was 1.31, the fold induction at 0.0048 µM turned out to be 1.59, the fold induction at 0.0097 µM worked out at 2.53 and the fold induction at 0.019 µM came to 5. Under setting [1], the fold induction at 0.039 µM is 8.48, the fold induction at 0.078 µM is 12.2, the fold induction at 0.156 µM worked out at 19 and the fold induction at 0.312 µM stood at 16.4.
